Experimental data reported in patent US20230086865A1, “ANTI-INFECTIVE BICYCLIC PEPTIDE CONJUGATES” (priority 2020, published 2023).
≈ marks a conversion by molar mass, not a printed value.

Experiments:
P. mirabilis ATCC 43071 = experiment: MIC follow-on study; details: Proteus mirabilis, ATCC43071
K. pneumoniae B454 = experiment: MIC follow-on study; details: Klebsiella pneumoniae
E. coli UTI89 = experiment: MIC follow-on study; details: Escherichia coli
A. baumannii NCTC 12156 = experiment: MIC follow-on study; details: Acinetobacter baumannii, NCTC12156
E. cloacae B173 = experiment: MIC follow-on study; details: Enterobacter cloacae
K. pneumoniae ATCC 43816 = experiment: MIC follow-on study; details: Klebsiella pneumoniae, ATCC43816
E. coli ATCC25922 = experiment: Minimum inhibitory concentration (MIC) assay; details: Escherichia coli
[1] = test system: K. pneumoniae ATCC 700603; experiment: MIC follow-on study; format: cell-based; details: Klebsiella pneumoniae, ATCC700603
Experimental: (§1) Minimum inhibitory concentration (MIC) assays were carried out using E. coli strains: GKCW101; GKCW102 and ATCC25922 using the method described by Antimicrobial Agents and Chemotherapy December 2016 Volume 60 Number 12 pages 7372-7381 and CLSI, 2020. Performance standards for antimicrobial susceptibility testing. Clinical Lab Standards Institute.
(§2) As a follow-on study, the MIC of BCY13246 was measured against a range of bacterial targets and compared with the MIC for the constituent bicyclic peptide ([…]) and carrier peptide ([…]) alone along with existing anti-microbial agents meropenem and levofloxacin. […].

K. pneumoniae KPNIH1 = experiment: MIC follow-on study; format: cell-based; details: Klebsiella pneumoniae
Experimental: as §1, §2

A. baumannii AR0275 = experiment: MIC follow-on study; format: cell-based; details: Acinetobacter baumannii
Experimental: as §1, §2

C. freundii AR0116 = experiment: MIC follow-on study; format: cell-based; details: Citrobacter freundii
Experimental: as §1, §2

E. cloacae AR0038 = experiment: MIC follow-on study; format: cell-based; details: Enterobacter cloacae
Experimental: as §1, §2

E. coli NCTC 13441 = experiment: MIC follow-on study; format: cell-based; details: Escherichia coli, NCTC13441
Experimental: as §1, §2

P. mirabilis AR159 = experiment: MIC follow-on study; format: cell-based; details: Proteus mirabilis
Experimental: as §1, §2

E. coli ATCC BAA-2469 = experiment: MIC follow-on study; format: cell-based; details: Escherichia coli, ATCCBAA2469
Experimental: as §1, §2

E. cloacae KPC114 = experiment: MIC follow-on study; format: cell-based; details: Enterobacter cloacae
Experimental: as §1, §2

E. cloacae AR0032 = experiment: MIC follow-on study; format: cell-based; details: Enterobacter cloacae
Experimental: as §1, §2

C. freundii B121 = experiment: MIC follow-on study; details: Citrobacter freundii
P. aeruginosa ATCC 27853 = experiment: MIC follow-on study; details: Pseudomonas aeruginosa, ATCC27853
P. aeruginosa NCTC 13437 = experiment: MIC follow-on study; format: cell-based; details: Pseudomonas aeruginosa, NCTC13437
Experimental: as §1, §2

SMILES | MIC (P. mirabilis ATCC 43071) [mg/L] | MIC (K. pneumoniae B454) [mg/L] | MIC (E. coli UTI89) [mg/L] | MIC (A. baumannii NCTC 12156) [mg/L] | MIC (E. cloacae B173) [mg/L] | MIC (K. pneumoniae ATCC 43816) [mg/L] | MIC (E. coli ATCC25922) [mg/L] | MIC [1] [mg/L] | MIC (K. pneumoniae KPNIH1) [mg/L] | MIC (A. baumannii AR0275) [mg/L] | MIC (C. freundii AR0116) [mg/L] | MIC (E. cloacae AR0038) [mg/L] | MIC (E. coli NCTC 13441) [mg/L] | MIC (P. mirabilis AR159) [mg/L] | MIC (E. coli ATCC BAA-2469) [mg/L] | MIC (E. cloacae KPC114) [mg/L] | MIC (E. cloacae AR0032) [mg/L] | MIC (C. freundii B121) [mg/L] | MIC (P. aeruginosa ATCC 27853) [mg/L] | MIC (P. aeruginosa NCTC 13437) [mg/L]
C[C@H]1COc2c(N3CCN(C)CC3)c(F)cc3c(=O)c(C(=O)O)cn1c23 [Levofloxacin, levofloxacin] | 0.06 (≈ 0.166 µM) | > 2 | 0.03 (≈ 0.083 µM) | 0.25 (≈ 0.692 µM) | 0.03 (≈ 0.083 µM) | 0.06 (≈ 0.166 µM) | 0.016 (≈ 0.0443 µM) | 0.5 (≈ 1.38 µM) | > 2 | > 2 | > 2 | > 2 | > 2 | 2 (≈ 5.53 µM) | > 2 | 0.5 (≈ 1.38 µM) | 0.5 (≈ 1.38 µM) | 0.25 (≈ 0.692 µM) | – | –
C[C@@H](O)[C@H]1C(=O)N2C(C(=O)O)=C(S[C@@H]3CN[C@H](C(=O)N(C)C)C3)[C@H](C)[C@H]12 [Meropenem, meropenem] | 0.06 (≈ 0.156 µM) | 0.03 (≈ 0.0782 µM) | 0.016 (≈ 0.0417 µM) | 1 (≈ 2.61 µM) | 0.03 (≈ 0.0782 µM) | 0.03 (≈ 0.0782 µM) | 0.016 (≈ 0.0417 µM) | 0.03 (≈ 0.0782 µM) | > 2 | > 2 | > 2 | > 2 | 0.016 (≈ 0.0417 µM) | > 2 | > 2 | > 2 | 0.25 (≈ 0.652 µM) | 0.03 (≈ 0.0782 µM) | 0.5 (≈ 1.3 µM) | > 2
